Data on 14 compounds can be found in PubChem BioAssay AID248 (DTP/NCI, 2004).

The experiment has as its system L1210 leukemia ip in BDF1 mice, survival T/C. Put plainly: NCI In Vivo Anticancer Drug Screen. Data for tumor model L1210 Leukemia (intraperitoneal) in B6D2F1 (BDF1) mice. As to conditions: endpoint: mean survival time, higher = longer survival. A digest of the protocol:
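Each compound was tested against a transplantable tumor grown in mice. The endpoint was survival, with treated animals benchmarked against vehicle controls as a simple ratio.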

Where [1] appears, read: dose: 100.0 mg/kg/injection, schedule: Q01DX001 (ip), vehicle: saline.
Setting [2] is: dose: 200.0 mg/kg/injection, schedule: Q01DX001 (ip), vehicle: saline.
Setting [3] is: dose: 100.0 mg/kg/injection, schedule: Q01DX009 (ip), vehicle: saline with Tween-80.
Where [4] appears, read: dose: 200.0 mg/kg/injection, schedule: Q01DX009 (ip), vehicle: saline with Tween-80.
[5] abbreviates: dose: 400.0 mg/kg/injection, schedule: Q01DX009 (ip), vehicle: saline with Tween-80.
[6] abbreviates: dose: 100.0 mg/kg/injection, schedule: Q01DX009 (ip), vehicle: Klucel (hydroxypropylcellulose) (HPC).
[7] abbreviates: dose: 200.0 mg/kg/injection, schedule: Q01DX009 (ip), vehicle: Klucel (hydroxypropylcellulose) (HPC).
The mark [8] stands for this setting: dose: 400.0 mg/kg/injection, schedule: Q01DX009 (ip), vehicle: Klucel (hydroxypropylcellulose) (HPC).
Setting [9] is: dose: 100.0 mg/kg/injection, schedule: Q04DX003 (ip), vehicle: saline.
Where [10] appears, read: dose: 200.0 mg/kg/injection, schedule: Q04DX003 (ip), vehicle: saline.

SMILES strings stand for the structures. Values joined by “and” are separate entries in the source; they are usually repeats but may differ in a detail not shown here. Equal values may be shown once. Toxic doses and inconclusive results are not listed.

With `CC(=O)Nc1ccn(C2OC(COC(C)=O)C(OC(C)=O)C2OC(C)=O)c(=O)n1` (centres undefined), the T/C runs as follows: (dose: 6.3 mg/kg/injection, schedule: Q## X090 (ip), vehicle: carboxymethylcellulose (CMC)) 94 % of control; (dose: 12.5 mg/kg/injection, schedule: Q## X090 (ip), vehicle: carboxymethylcellulose (CMC)) 102 % of control; (dose: 18.0 mg/kg/injection, schedule: Q03HX024 (ip), vehicle: other) 114 % of control; (dose: 25.0 mg/kg/injection, schedule: Q## X090 (ip), vehicle: carboxymethylcellulose (CMC)) 97 % of control; (dose: 50.0 mg/kg/injection, schedule: Q## X090 (ip), vehicle: carboxymethylcellulose (CMC)) 102 % of control; (dose: 53.0 mg/kg/injection, schedule: Q01DX Z (ip), vehicle: carboxymethylcellulose (CMC)) 106 % of control. The T/C is 168 % of control (dose: 75.0 mg/kg/injection, schedule: Q03HX024 (ip), vehicle: other); 107 % of control (dose: 79.0 mg/kg/injection, schedule: Q01DX Z (ip), vehicle: carboxymethylcellulose (CMC)); 109 % of control (dose: 119.0 mg/kg/injection, schedule: Q01DX Z (ip), vehicle: carboxymethylcellulose (CMC)); 115 % of control (dose: 125.0 mg/kg/injection, schedule: Q01DX009 (oral), vehicle: carboxymethylcellulose (CMC)); 111 % of control (dose: 125.0 mg/kg/injection, schedule: Q03HX024 (oral), vehicle: carboxymethylcellulose (CMC)); 123 % of control (dose: 125.0 mg/kg/injection, schedule: Q03HX024 (oral), vehicle: water). Moreover, the T/C by setting is: (dose: 150.0 mg/kg/injection, schedule: Q03HX024 (ip), vehicle: other) 195 % of control; (dose: 150.0 mg/kg/injection, schedule: Q04DX003 (ip), vehicle: other) 108 % of control; (dose: 178.0 mg/kg/injection, schedule: Q01DX Z (ip), vehicle: carboxymethylcellulose (CMC)) 119 % of control; (dose: 178.0 mg/kg/injection, schedule: Q01DX Z (ip), vehicle: saline) 116 % of control; (dose: 200.0 mg/kg/injection, schedule: Q01DX001 (ip), vehicle: carboxymethylcellulose (CMC)) 101 % of control; (dose: 200.0 mg/kg/injection, schedule: Q01DX010 (oral), vehicle: carboxymethylcellulose (CMC)) 112 % of control. Also, the T/C (dose: 250.0 mg/kg/injection, schedule: Q03HX024 (oral), vehicle: carboxymethylcellulose (CMC)) was 113 % of control; the T/C (dose: 250.0 mg/kg/injection, schedule: Q03HX024 (oral), vehicle: water) is 121 % of control; the T/C (dose: 300.0 mg/kg/injection, schedule: Q03HX024 (ip), vehicle: other) is 228 % of control; the T/C (dose: 300.0 mg/kg/injection, schedule: Q04DX003 (ip), vehicle: other) was 115 % of control; the T/C (dose: 400.0 mg/kg/injection, schedule: Q01DX001 (ip), vehicle: carboxymethylcellulose (CMC)) was 103 % of control; the T/C (dose: 400.0 mg/kg/injection, schedule: Q01DX Z (ip), vehicle: saline) is 163 % of control. In addition, the T/C was 124 % of control (dose: 500.0 mg/kg/injection, schedule: Q03HX024 (oral), vehicle: carboxymethylcellulose (CMC)); 177 % of control and 184 % of control (dose: 600.0 mg/kg/injection, schedule: Q01DX009 (ip), vehicle: other); 124 % of control and 246 % of control (dose: 600.0 mg/kg/injection, schedule: Q01DX Z (ip), vehicle: carboxymethylcellulose (CMC)); 166 % of control (dose: 600.0 mg/kg/injection, schedule: Q01DX Z (ip), vehicle: saline); 101 % of control (dose: 800.0 mg/kg/injection, schedule: Q01DX001 (ip), vehicle: carboxymethylcellulose (CMC)); 175 % of control (dose: 900.0 mg/kg/injection, schedule: Q01DX Z (ip), vehicle: carboxymethylcellulose (CMC)). Also, the T/C is, setting by setting: (dose: 1000.0 mg/kg/injection, schedule: Q03HX024 (oral), vehicle: carboxymethylcellulose (CMC)) 122 % of control; (dose: 1000.0 mg/kg/injection, schedule: Q03HX024 (oral), vehicle: water) 208 % of control; (dose: 1200.0 mg/kg/injection, schedule: Q01DX009 (ip), vehicle: other) 213 % of control and 228 % of control; (dose: 1200.0 mg/kg/injection, schedule: Q04DX003 (ip), vehicle: other) 159 % of control; (dose: 1350.0 mg/kg/injection, schedule: Q01DX Z (ip), vehicle: carboxymethylcellulose (CMC)) 295 % of control; (dose: 1600.0 mg/kg/injection, schedule: Q01DX001 (ip), vehicle: carboxymethylcellulose (CMC)) 124 % of control. Further, the T/C is, setting by setting: (dose: 1600.0 mg/kg/injection, schedule: Q01DX010 (oral), vehicle: carboxymethylcellulose (CMC)) 214 % of control; (dose: 2000.0 mg/kg/injection, schedule: Q03HX024 (oral), vehicle: water) 226 % of control; (dose: 2400.0 mg/kg/injection, schedule: Q01DX009 (ip), vehicle: other) 112 % of control; (dose: 2400.0 mg/kg/injection, schedule: Q04DX003 (ip), vehicle: other) 214 % of control.

In the case of `C[N+](C)(C)/N=C1\CC2CCC1C2` (centres undefined), the T/C by setting is: under setting [1], 98 % of control; under setting [2], 101 % of control.

Consider `CCN=C=NCCCN(C)C`, for which the T/C is 107 % of control (dose: 20.0 mg/kg/injection, schedule: Q01DX009 (ip), vehicle: saline); 100 % of control (dose: 20.0 mg/kg/injection, schedule: Q04DX003 (ip), vehicle: saline); 114 % of control (dose: 40.0 mg/kg/injection, schedule: Q01DX009 (ip), vehicle: saline); 109 % of control (dose: 40.0 mg/kg/injection, schedule: Q04DX003 (ip), vehicle: saline); 112 % of control (dose: 80.0 mg/kg/injection, schedule: Q04DX003 (ip), vehicle: saline).

Take `CCCCCCc1cccc(C)n1`: the T/C under setting [1] is 94 % of control and the T/C under setting [2] is 92 % of control.

For `CCOC(=O)c1cnc2c(cnn2C(C)C)c1NN`, the T/C is, setting by setting: (dose: 100.0 mg/kg/injection, schedule: Q04DX003 (ip), vehicle: Klucel (hydroxypropylcellulose) (HPC)) 99 % of control; (dose: 200.0 mg/kg/injection, schedule: Q04DX003 (ip), vehicle: Klucel (hydroxypropylcellulose) (HPC)) 99 % of control; (dose: 400.0 mg/kg/injection, schedule: Q04DX003 (ip), vehicle: Klucel (hydroxypropylcellulose) (HPC)) 96 % of control.

On to `C=CCC(O)CCC` (centres undefined), for which the T/C was 89 % of control under setting [3]; 97 % of control (dose: 100.0 mg/kg/injection, schedule: Q04DX003 (ip), vehicle: saline with Tween-80); 90 % of control under setting [4]; 100 % of control (dose: 200.0 mg/kg/injection, schedule: Q04DX003 (ip), vehicle: saline with Tween-80); 89 % of control under setting [5]; 100 % of control (dose: 400.0 mg/kg/injection, schedule: Q04DX003 (ip), vehicle: saline with Tween-80).

As for `Oc1ccc(C=NCCN=Cc2ccc(O)cc2O)c(O)c1`, the T/C is, setting by setting: (dose: 8.0 mg/kg/injection, schedule: Q01DX009 (ip), vehicle: saline with Tween-80) 87 % of control; (dose: 12.0 mg/kg/injection, schedule: Q01DX009 (ip), vehicle: saline with Tween-80) 89 % of control.

As for `O=C(Nc1ccc(Cl)cc1)Nc1ncc(Cl)s1`, the T/C was 94 % of control under setting [6], 96 % of control under setting [7] and 89 % of control under setting [8].

Turning to `COc1cc(OC)c(OC)cc1/C=C/c1ccc2ccccc2n1`, the T/C is, setting by setting: under setting [3], 91 % of control; under setting [4], 100 % of control; under setting [5], 98 % of control.

Regarding `CCOC(=O)CNc1ccc(F)c(F)c1`, the T/C (dose: 100.0 mg/kg/injection, schedule: Q04DX002 (ip), vehicle: Klucel (hydroxypropylcellulose) (HPC)) was 97 % of control; the T/C (dose: 200.0 mg/kg/injection, schedule: Q04DX002 (ip), vehicle: Klucel (hydroxypropylcellulose) (HPC)) is 90 % of control; the T/C (dose: 400.0 mg/kg/injection, schedule: Q04DX002 (ip), vehicle: Klucel (hydroxypropylcellulose) (HPC)) was 103 % of control.

Turning to `CCOP(=O)(CSCCc1ccccc1)OCC`, the T/C under setting [9] is 92 % of control and the T/C under setting [10] was 103 % of control.

For the compound `CCC(C)N` (centres undefined), the T/C was 95 % of control under setting [9] and 95 % of control under setting [10].

As for `S=C1Nc2ccccc2CS1`, the T/C by setting is: under setting [6], 100 % of control; under setting [7], 98 % of control; under setting [8], 102 % of control.

Consider `Brc1cc(Br)c(/C=C/c2c(Br)cc(Br)cc2Br)c(Br)c1`, for which the T/C was 104 % of control under setting [6], 102 % of control under setting [7] and 105 % of control under setting [8].
